The structures appear in SMILES notation.

Common to all, as to type: in vivo
Test [1] has as its system Cyperus iria. The test can be described thus: Preemergence weed control under flooded paddy conditions, CYPIR (Rice Flatsedge). The note with it: preemergence, flooded paddy; for CYPIR herbicidal rating: rated three to four weeks after treatment; for herbicidal effect rating, CYPIR: rated 3-4 weeks after treatment.
The test system of test [2] is Monochoria vaginalis, Presl. In words: Preemergence weed control under flooded paddy conditions, MOOVA (Monochoria). The note with it: preemergence, flooded paddy; for MOOVA herbicidal rating: rated three to four weeks after treatment; for herbicidal effect rating, MOOVA: rated 3-4 weeks after treatment.
Test [3] deals with Cyperus serotinus, Rottb. In words: Preemergence weed control under flooded paddy conditions, CYPSE (Flatsedge). The note with it: preemergence; for CYPSE herbicidal rating: rated three to four weeks after treatment; for herbicidal effect rating, CYPSE: rated 3-4 weeks after treatment.
Test [4] concerns Echinochloa oryzoides (Ard.) Fritsch. In words: Preemergence weed control under flooded paddy conditions, ECHORC (Watergrass (Calif.)). The note with it: preemergence, flooded paddy; for ECHORC herbicidal rating: rated three to four weeks after treatment; for herbicidal effect rating, ECHORC: rated 3-4 weeks after treatment.
The test system of test [5] is Sagittaria pygmaea, L. In words: Preemergence weed control under flooded paddy conditions, SAGPY (Arrowhead (Pygmaea)). The note with it: preemergence, flooded paddy; for SAGPY herbicidal rating: rated three to four weeks after treatment; for herbicidal effect rating, SAGPY: rated 3-4 weeks after treatment.

For the molecule `Cn1c(C(F)(F)F)cc(=O)n(-c2ccc3snc(COC(=O)C(C)(C)C)c3c2)c1=O` [Example 498, 2,4(1H,3H)-Pyrimidinedione, 3-[3-(hydroxymethyl)-1,2-benzisothiazol-5-yl]-1-methyl-6-(trifluoromethyl)-, pivalate (ester)], the CYPIR herbicidal rating in test [1] (0.0320 kg/ha) is listed as 2.0; in test [1] (0.0620 kg/ha), 5.0; in test [1] (0.1250 kg/ha) it was 9.0; in test [1] (0.2500 kg/ha) it was 9.0. In addition, the MOOVA herbicidal rating is 4.0 in test [2] (0.0320 kg/ha), 5.0 in test [2] (0.0620 kg/ha), 7.0 in test [2] (0.1250 kg/ha) and 8.0 in test [2] (0.2500 kg/ha). This molecule also showed a CYPSE herbicidal rating in test [3] (0.1250 kg/ha) of 0.0. Further, the ECHORC herbicidal rating turned out to be 0.0 in test [4] (0.0320 kg/ha), 3.0 in test [4] (0.0620 kg/ha), 5.0 in test [4] (0.1250 kg/ha) and 6.0 in test [4] (0.2500 kg/ha). The SAGPY herbicidal rating in test [5] (0.0320 kg/ha) stood at 0.0; in test [5] (0.0620 kg/ha), 0.0; in test [5] (0.1250 kg/ha) it was 3.0; in test [5] (0.2500 kg/ha), 6.0.
`COc1ccc(CC(=O)OCc2nsc3ccc(-n4c(=O)cc(C(F)(F)F)n(C)c4=O)cc23)cc1OC` [Example 502, 2,4(1H,3H)-Pyrimidinedione, 3-[3-(hydroxymethyl)-1,2-benzisothiazol-5-yl]-1-methyl-6-(trifluoromethyl)-, (3,4-dimethoxyphenyl)acetate (ester)]: the CYPIR herbicidal rating is given as 4.0 in test [1] (0.0320 kg/ha), 6.0 in test [1] (0.0620 kg/ha), 9.0 in test [1] (0.1250 kg/ha) and 9.0 in test [1] (0.2500 kg/ha). For the same molecule, the MOOVA herbicidal rating is given as 6.0 in test [2] (0.0320 kg/ha), 6.0 in test [2] (0.0620 kg/ha), 7.0 in test [2] (0.1250 kg/ha) and 9.0 in test [2] (0.2500 kg/ha). Further, the CYPSE herbicidal rating in test [3] (0.0320 kg/ha) is recorded as 0.0; in test [3] (0.0620 kg/ha), 2.0; in test [3] (0.2500 kg/ha), 5.0. Moreover, the ECHORC herbicidal rating came to 3.0 in test [4] (0.0320 kg/ha), 3.0 in test [4] (0.0620 kg/ha), 5.0 in test [4] (0.1250 kg/ha) and 7.0 in test [4] (0.2500 kg/ha). In addition, the SAGPY herbicidal rating came out at 0.0 in test [5] (0.0320 kg/ha), 2.0 in test [5] (0.0620 kg/ha), 5.0 in test [5] (0.1250 kg/ha) and 9.0 in test [5] (0.2500 kg/ha).
As for `COc1ccc(OC)c(CC(=O)OCc2nsc3ccc(-n4c(=O)cc(C(F)(F)F)n(C)c4=O)cc23)c1` [Example 503, 2,4(1H,3H)-Pyrimidinedione, 3-[3-(hydroxymethyl)-1,2-benzisothiazol-5-yl]-1-methyl-6-(trifluoromethyl)-, (2,5-dimethoxyphenyl)acetate (ester)], the CYPIR herbicidal rating in test [1] (0.0320 kg/ha) worked out at 0.0; in test [1] (0.0620 kg/ha) it was 6.0; in test [1] (0.1250 kg/ha) it was 9.0; in test [1] (0.2500 kg/ha), 7.0. Further, the MOOVA herbicidal rating in test [2] (0.0320 kg/ha) was 7.0; in test [2] (0.0620 kg/ha), 9.0; in test [2] (0.1250 kg/ha), 9.0; in test [2] (0.2500 kg/ha), 9.0. Also, the CYPSE herbicidal rating in test [3] (0.1250 kg/ha) is 5.0; in test [3] (0.2500 kg/ha), 6.0. Further, the ECHORC herbicidal rating in test [4] (0.0320 kg/ha) is 2.0; in test [4] (0.0620 kg/ha), 4.0; in test [4] (0.1250 kg/ha), 6.0; in test [4] (0.2500 kg/ha), 6.0. Also, the SAGPY herbicidal rating in test [5] (0.0320 kg/ha) is 0.0; in test [5] (0.0620 kg/ha), 3.0; in test [5] (0.1250 kg/ha) it was 4.0; in test [5] (0.2500 kg/ha) it was 8.0.
On to `CC/C=C/CCCCCCCCCCOC(=O)COc1ccc(C)cc1-c1nsc2ccc(-n3c(=O)cc(C(F)(F)F)n(C)c3=O)cc12` [Example 526, Acetic acid, {{2-{5-[3,6-dihydro-3-methyl-2,6-dioxo-4-(trifluoromethyl)-1(2H)-pyrimidinyl]-1,2-benzisothiazol-3-yl}-p-tolyl}oxy}-, 11-tetradecenyl ester, (E)-], for which the “herbicidal effect rating, CYPIR” value stood at 2.0 in test [1] (Rate 0.0320 kg/ha), 4.0 in test [1] (Rate 0.0620 kg/ha), 7.0 in test [1] (Rate 0.1250 kg/ha) and 9.0 in test [1] (Rate 0.2500 kg/ha). Further, the “herbicidal effect rating, MOOVA” value in test [2] (Rate 0.0320 kg/ha) is recorded as 8.0; in test [2] (Rate 0.0620 kg/ha) it was 9.0; in test [2] (Rate 0.1250 kg/ha) it was 9.0; in test [2] (Rate 0.2500 kg/ha), 9.0. Also, the “herbicidal effect rating, CYPSE” value in test [3] (Rate 0.0320 kg/ha), in test [3] (Rate 0.0620 kg/ha), in test [3] (Rate 0.1250 kg/ha) and in test [3] (Rate 0.2500 kg/ha) was 0.0 throughout. The “herbicidal effect rating, ECHORC” value was determined as 2.0 in test [4] (Rate 0.0320 kg/ha), 2.0 in test [4] (Rate 0.0620 kg/ha), 4.0 in test [4] (Rate 0.1250 kg/ha) and 6.0 in test [4] (Rate 0.2500 kg/ha). The “herbicidal effect rating, SAGPY” value in test [5] (Rate 0.0320 kg/ha), in test [5] (Rate 0.0620 kg/ha), in test [5] (Rate 0.1250 kg/ha) and in test [5] (Rate 0.2500 kg/ha) was 0.0 in each case.
Consider `Cc1ccc(OCC(=O)OCCCCCO[Si](C)(C)C(C)(C)C)c(-c2nsc3ccc(-n4c(=O)cc(C(F)(F)F)n(C)c4=O)cc23)c1` [Example 534, Acetic acid, {{2-{5-[3,6-dihydro-3-methyl-2,6-dioxo-4-(trifluoromethyl)-1(2H)-pyrimidinyl]-1,2-benzisothiazol-3-yl}-p-tolyl}oxy}-, 5-(tert-butyldimethylsiloxy)pentyl ester], for which the “herbicidal effect rating, CYPIR” value in test [1] (Rate 0.0320 kg/ha) came to 0.0; in test [1] (Rate 0.0620 kg/ha), 3.0; in test [1] (Rate 0.1250 kg/ha), 3.0; in test [1] (Rate 0.2500 kg/ha) it was 9.0. In addition, the “herbicidal effect rating, MOOVA” value is on record as 4.0 in test [2] (Rate 0.0320 kg/ha), 9.0 in test [2] (Rate 0.0620 kg/ha), 9.0 in test [2] (Rate 0.1250 kg/ha) and 9.0 in test [2] (Rate 0.2500 kg/ha). The “herbicidal effect rating, CYPSE” value in test [3] (Rate 0.0320 kg/ha), in test [3] (Rate 0.0620 kg/ha), in test [3] (Rate 0.1250 kg/ha) and in test [3] (Rate 0.2500 kg/ha) was 0.0 throughout. The “herbicidal effect rating, ECHORC” value in test [4] (Rate 0.0320 kg/ha) worked out at 3.5; in test [4] (Rate 0.0620 kg/ha), 4.5; in test [4] (Rate 0.1250 kg/ha) it was 9.0; in test [4] (Rate 0.2500 kg/ha), 9.0. In addition, the “herbicidal effect rating, SAGPY” value in test [5] (Rate 0.0320 kg/ha), in test [5] (Rate 0.0620 kg/ha), in test [5] (Rate 0.1250 kg/ha) and in test [5] (Rate 0.2500 kg/ha) was 0.0 each time.

Source of the values: patent EP0908457B1, “3-(1,2-benzisothiazol- and isoxazol-5-Y1)-2,4(1H,3H)-pyrimidinedione or thione and 3-(1,2-benzisothiazol- and isoxazol-5-y1)-4(3H)-pyrimidinone or thione herbicidal agents” (BASF AKTIENGESELLSCHAFT, priority 1997, dated 1999).
